Each structure is given as a SMILES string. Entries after “also recorded” stand apart in the source; their conditions may differ.

For one series, the system named is zebrafish blood vessels. Particulars: Chan et al., 2002; cited from earlier work.
Series [1] concerns vascular endothelial cell. The settings on record: in vitro; cited from earlier work.
The subject of series [2] is TG(VEGFR2:G-RCFP) transgenic zebrafish embryos. The experiment in a line: Angiogenesis inhibitor assay in TG(VEGFR2:G-RCFP) transgenic zebrafish embryos with fluorescent blood vessels. The settings on record: for Intersegmental vessel formation: treated overnight from 13-somite stage (approximately 15 hpf); for Phenotypic response: cell wrapped over the compound's rows, in full: Dorsal aorta, caudal veins, present. Intersegmental vessels absent. Cranial vessels reduced in number.; for Concentrations of the compounds required to see these effects (complete block of intersegmental vessel formation) / Blood vessels in the head that form by angiogenesis: overnight application; for Blood vessels in the head that form by angiogenesis: 10 μM for SU5416 and 15 μM for SU6668; for Effect on pre-existing blood vessels: six-hour treatment at 24 hpf, well-established primary vasculature not affected; for Migration pattern of VEGFR2 expressing cells toward the midline: treated embryos at the 18 somite stage, versus control.

The next series concerns mouse xenograft models. The settings on record: mouse xenograft models (Shaheen et al., 1999); cited from earlier work.
For series [3] the following is noted: patients treated in clinical trials; cited from earlier work.
Where [4] appears, read: 10 μM, stage at treatment 6 hpf, time treated 24 h.
Where [5] appears, read: 10 μM, stage at treatment 15 hpf, time treated 24 h.
Setting [6] is: 10 μM, stage at treatment 24 hpf, time treated 6 h.

Turning to `Clc1ccc(Nc2nnc(Cc3ccncc3)c3ccccc23)cc1` [PTK787/ZK222584], in the series on zebrafish blood vessels, the “Formation of zebrafish blood vessels” value is “affect the formation of zebrafish blood vessels”.

As for `Cc1cc(C)c(/C=C2\C(=O)Nc3ccccc32)[nH]1` [SU5416], the “VEGF-induced vascular endothelial cell proliferation” value in series [1] is given as “inhibit VEGF-induced vascular endothelial cell proliferation in vitro”. For the same compound, the Percent full effect in series [2] (5 μM, stage at treatment 6 hpf, time treated 24 h) amounted to 100%; in series [2] (5 μM, stage at treatment 15 hpf, time treated 24 h) it was 77%; in series [2] (5 μM, stage at treatment 24 hpf, time treated 6 h), 60%; in series [2] (setting [4]) it was 100%; in series [2] (10 μM, stage at treatment 15 hpf, time treated 6 h) it was 100%; in series [2] (setting [5]) it was 100%. The same compound had a Percent full effect in series [2] (setting [6]) of 100%. Further, in series [2] (10 μM for six hours beginning at 24 hpf, embryo at 30 hpf), the “Disruption of pre-existing intersegmental vessels” value is given as “A single intersegmental vessel (indicated by arrow) remains”. Further, the Intersegmental vessel formation result in series [2] (10 μM, embryo at 30 hpf) is listed as “No intersegmental vessels are observed; also recorded: completely blocked intersegmental vessel formation”. The Phenotypic response result in series [2] was “Dorsal aorta, caudal”. The “Recovery time of treated embryos” value in series [2] (comparison SU5416 versus SU6668) is given as “required a longer recovery time than those treated with SU6668”. In series [2] (difficult to remove even after many hours of soaking in fresh water), the “Distribution in treated embryos” value is on record as “highly concentrated in the yolk of treated embryos”. Further, the “Concentrations of the compounds required to see these effects (complete block of intersegmental vessel formation)” value in series [2] was 10 µM. The “Blood vessels in the head that form by angiogenesis” value in series [2] is reported as “blood vessels in the head that form by angiogenesis were not observed”. In series [2], the “Effect on pre-existing blood vessels” value is “disrupted pre- existing blood vessels”. The “Migration pattern of VEGFR2 expressing cells toward the midline” value in series [2] was “No difference was observed in the migration pattern of VEGFR2 expressing cells”. Also, the “Metastases, microvessel formation and apoptosis” value in the series with mouse xenograft models is “inhibit the formation of metastases and microvessel formation and increase apoptosis of both tumor cells and tumor endothelial cells”. Also, in series [3], the Plasma level is 5 µM.

Consider `Cc1[nH]c(/C=C2\C(=O)Nc3ccccc32)c(C)c1CCC(=O)O` [SU6668], for which, in series [1], the “VEGF-induced vascular endothelial cell proliferation” value is listed as “inhibit VEGF-induced vascular endothelial cell proliferation in vitro”. Besides, the Percent full effect came out at 100% in series [2] (setting [4]); 100% in series [2] (setting [5]); 87% in series [2] (setting [6]); 100% in series [2] (15 μM, stage at treatment 6 hpf, time treated 24 h); 100% in series [2] (15 μM, stage at treatment 15 hpf, time treated 6 h); 100% in series [2] (15 μM, stage at treatment 15 hpf, time treated 24 h). In series [2] (15 μM, stage at treatment 24 hpf, time treated 6 h), this compound came in with a Percent full effect of 100%. In series [2] (15 μM, embryo at 30 hpf), the Intersegmental vessel formation entry was “No intersegmental vessels are observed; also recorded: completely blocked intersegmental vessel formation”. In addition, the Phenotypic response result in series [2] was “Dorsal aorta, caudal”. In addition, in series [2] (larva at 5 dpf, treated overnight with 15 μM at 2 dpf, recovered 3 days in fresh water, some vessels migrating abnormally), the “Intersegmental vessels after recovery” value is “Intersegmental vessels are reforming”. In series [2], the “Concentrations of the compounds required to see these effects (complete block of intersegmental vessel formation)” value was found to be 15 µM. Also, the “Blood vessels in the head that form by angiogenesis” value in series [2] is “blood vessels in the head that form by angiogenesis were not observed”. Besides, the “Effect on pre-existing blood vessels” value in series [2] was “disrupted pre- existing blood vessels”. Besides, the “Migration pattern of VEGFR2 expressing cells toward the midline” value in series [2] is on record as “No difference was observed in the migration pattern of VEGFR2 expressing cells”. In addition, the “Metastases, microvessel formation and apoptosis” value with mouse xenograft models was “inhibit the formation of metastases and microvessel formation and increase apoptosis of both tumor cells and tumor endothelial cells”.
